Source: patent US8288377B2, “Inhibitors of the interaction between MDM2 and p53” (Janssen Pharmaceutica N.V., priority 2007, dated 2012)

Tests used:
p53 in A2780 cells = test: p53 ELISA (preservation of p53 in A2780 cells); assay type: cell-based; conditions: Homo sapiens, treated with compound for 16 hours, read-out: p53-elisa LAD (lowest dose giving at least 140% of the value for p53 present in the control)
Procedure: The capacity of the compounds to preserve p53 in A2780 cells was measured with the p53 enzyme linked immunosorbent assay (ELISA). The p53 assay is a “sandwich” enzyme immunoassay employing two polyclonal antibodies. A polyclonal antibody, specific for the p53 protein, has been immobilized onto the surface of the plastic wells. Any p53 present in the sample to be assayed will bind to the capture antibody. The biotinylated detector polyclonal antibody also recognizes p53 protein, and will bind to any p53, which has been retained by the capture antibody. The detector antibody, in turn, is bound by horseradish peroxidase-conjugated streptavidin. The horseradish peroxidase catalyses the conversion of the chromogenic substrate o-phenylene diamine, the intensity of which is proportional to the amount of p53 protein bound to the plate. The coloured reaction product is quantified using a spectrophotometer. Quantitation is achieved by the construction of a standard curve using known concentrations of purified recombinant HIS tagged p53 protein (see example C.1).
A2780 cells (ATCC) were cultivated in RPMI 1640 supplemented with 10% fetal calf serum (FCS), 2 mM L-glutamine and gentamycin at 37° C. in a humidified incubator with 5% CO2.
A2780 cells were seeded at 20.000 cells per well in a 96 well plate, cultured for 24 hours and treated with compound for 16 hours at 37° C. in a humidified incubator. After incubation, the cells were washed once with phosphate-buffered saline and 30 μl, per well, low salt RIPA buffer (20 mM tris, pH7.0, 0.5 mM EDTA, 1% Nonidet P40, 0.5% DOC, 0.05% SDS, 1 mM PMSF, 1 μg/ml aprotinin and 0.5 μ/ml leupeptin) was added. Plates were placed on ice for 30 minutes to complete the lysis. p53 protein was detected in de lysates by using the sandwich ELISA, described below.
High binding polystyrene EIA/RIA 96 well plates (Costar 9018) were coated with the capture antibody pAb1801 (Abcam ab28-100) at a concentration of 1 μg/ml in coating buffer (0.1 M NaHCO3 pH8.2), 50 μl per well. The antibody was allowed to adhere overnight at 4° C. Coated plates were washed once with phosphate-buffered saline (PBS)/0.05% Tween 20 and 300 μl of blocking buffer (PBS, 1% bovine serum albumins (BSA)) was added, for an incubation period of 2 hours at room temperature. Dilutions of purified recombinant HIS tagged p53 protein, ranging from 3-200 ng/ml, were made in blocking buffer and used as standards.
Plates were washed twice with PBS/0.05% Tween 20 and blocking buffer or standards were added at 80 μl/well. To the standards, 20 μl of lysis buffer was added. The samples were added to the other wells at 20 μl lysate/well. After an overnight incubation at 4° C., plates were washed twice with PBS/0.05% Tween 20. Aliquots of 100 μl secondary polyclonal antibody p53(FL-393) (Tebubio, sc-6243) at a concentration of 1 μg/ml in blocking buffer were added to each well and allowed to adhere for 2 hours at room temperature. Plates were washed three times with PBS/0.05% Tween 20. Detection antibody anti-rabbit HRP (sc-2004, Tebubio) at 0.04 μg/ml in PBS/1% BSA was added and incubated for 1 hour at room temperature. Plates were washed three times with PBS/0.05% Tween 20 and 100 μl of substrate buffer was added (substrate buffer was prepared shortly before use by adding 1 tablet of 10 mg o-phenylene diamine (OPD) from Sigma and 125 μl 3% H2O2 to 25 ml OPD buffer: 35 mM citric acid, 66 mM Na2HPO4, pH5.6). After 5 to 10 minutes, colour reaction was stopped by adding 50 μl stop buffer (1 M H2SO4) per well. The absorbance at dual wavelengths of 490/655 nm was measured using a Biorad micro plate reader and the results were then analyzed.
For each experiment, controls (containing no drug) and a blank incubation (containing no cells or drugs) were run in parallel. The blank value was subtracted from all control and sample values. For each sample, the value of p53 (in absorbance units) was expressed as the percentage of the value for p53 present in the control. […]

[1] = tested on: A2780 ovarian cancer cells; test: Proliferation assay (Alamar Blue); assay type: cell-based; conditions: Homo sapiens, 96 h, 4-day incubation, read-out: pIC50 (negative log value of the IC50-value) (converted)
Procedure: Cellular activity of the compounds of formula (I) was determined on A2780 tumour cells using a colorimetric assay for cell toxicity or survival (see example C.2).
The human A2780 ovarian cancer cells were a kind gift from Dr. T. C. Hamilton (Fox Chase Cancer Centre, Pennsylvania, U.S.A.). The cells were cultured in RPMI 1640 medium supplemented with 2 mM L-Glutamine, 50 μg/ml gentamicin and 10% fetal calf serum.
Resazurin was purchased from Aldrich (Prod. No. 199303). Potassium ferrocyanide, potassium ferricyanide, KH2PO4 and K2HPO4 were purchased from Sigma (Prod. Nos. P9387, P8131, P5655 and P8281, respectively).
Potassium Phosphate Buffer 0.1 M (PPB) was made as follows: 2.72 gram KH2PO4 and 13.86 gram K2HPO4 were dissolved in 500 ml milli-Q H2O, the pH was adjusted to pH 7.4 and the volume was brought to 1 liter with milli-Q H2O; the buffer was filter sterilised and stored at room temperature. Resazurin stock solution (PPB-A) was prepared fresh by dissolving 45 mg resazurin in 15 ml PBS. 30 mM potassium ferricyanide (PPB-B) was prepared by dissolving 0.987 gram potassium ferricyanide in 100 ml PPB. 30 mM potassium ferrocyanide (PPB-C) was prepared by dissolving 1.266 gram potassium ferrocyanide in 100 ml PPB.
Mixture of PPB-A, PPB-B and PPB-C was prepared by mixing equal volumes of the respective solutions. Resazurin work solution (herein termed “Alamar Blue” solution) was prepared by diluting said mixture 20× (vol/vol) in PPB and filter sterilising; the Alamar Blue solution could be kept at 4° C. for a maximum of 2 weeks.
For experiments in 384 wells plates the cells were seeded at a density of 5×10^3 cells/ml in Falcon 384-well culture plates (Life Technologies, Merelbeke, Belgium), black with clear bottom, in 45 μl culture medium. Cells were allowed to adhere to plastic for 24 hr. The tested compound was pre-diluted (1/50 in culture medium) and 5 μl pre-diluted compound was added to the wells. Following 4-day incubation, 10 μl of the Alamar Blue solution was added to each well and the cells were further incubated for 5 hrs (A2780) at 37° C. The fluorescence intensity was measured for each well with a Fluorescence plate reader (Fluorskan, Labsystems, 540 nm excitation and 590 nm emission)
The antiproliferative activity was calculated as percentage of remaining viable cells in treated versus control (untreated cells) conditions. Within an experiment, the result for each experimental condition is the mean of 3 replicate wells. When appropriate, the experiments were repeated to establish full concentration-response curves. When appropriate, IC50-values (concentration of the drug, needed to reduce cell growth to 50% of the control) were computed using probit analysis for graded data (Finney, D. J., Probit Analyses, 2nd Ed. Chapter 10, Graded Responses, Cambridge University Press, Cambridge 1962). Herein the effects of test compounds are expressed as pIC50 (the negative log value of the IC50-value) (see Table 4).

CN1CCC2(CC1)CN(CCc1c[nH]c3ccccc13)c1ccc(Nc3ccnc(CO)c3)cc1O2 [Compound 43]
minimal effective concentration (p53 in A2780 cells): > 10 µM | IC50 [1]: ~5.01 µM

CC(C)N1CCC2(CC1)CN(CCc1c[nH]c3ccccc13)c1ccc(Nc3ccnc4c3CCC4O)cc1O2 (stereo not drawn) [Compound 33]
minimal effective concentration (p53 in A2780 cells): > 10 µM | IC50 [1]: 2.19 µM

c1ccc2c(CCN3CCOc4cc(Nc5ccncc5)ccc43)csc2c1 [Compound 6]
minimal effective concentration (p53 in A2780 cells): > 10 µM | IC50 [1]: 5.5 µM

OC1CCc2c(Nc3ccc4c(c3)OC3(CCCCC3)CN4CCc3c[nH]c4ccccc34)ccnc21 (stereo not drawn) [Compound 29]
minimal effective concentration (p53 in A2780 cells): 10 µM | IC50 [1]: ~5.13 µM

OCc1cc(Nc2ccc3c(c2)OCCN3CCc2c[nH]c3ccccc23)ccn1 [Compound 22]
minimal effective concentration (p53 in A2780 cells): 1 µM | IC50 [1]: 2.29 µM

CC(C)N1CCC2(CC1)CN(CCc1c[nH]c3ccccc13)c1ccc(Nc3ccnc(CO)c3)cc1O2 [Compound 36]
minimal effective concentration (p53 in A2780 cells): > 10 µM | IC50 [1]: 3.39 µM

CC1(C)Oc2cc(Nc3ccncc3)ccc2N(CCc2c[nH]c3ccccc23)C1=O [Compound 63]
minimal effective concentration (p53 in A2780 cells): > 10 µM | IC50 [1]: > 10 µM

OC1CCc2c(Nc3ccc4c(c3)OCCN4CCc3coc4ccccc34)ccnc21 (stereo not drawn) [Compound 70]
minimal effective concentration (p53 in A2780 cells): 10 µM | IC50 [1]: 6.46 µM

CN1CCN(CCc2c[nH]c3ccccc23)c2ccc(Nc3ccnc4c3CCC4O)cc21 (stereo not drawn) [Compound 75]
minimal effective concentration (p53 in A2780 cells): > 10 µM | IC50 [1]: ~5.25 µM

Cc1cccc2c(CCN3CC(C)(C)Oc4cc(Nc5ccncc5)ccc43)c[nH]c12 [Compound 52]
minimal effective concentration (p53 in A2780 cells): > 10 µM | IC50 [1]: 3.09 µM

CN1CCN(CCc2c[nH]c3ccccc23)c2ccc(Nc3ccncc3)cc21 [Compound 76]
minimal effective concentration (p53 in A2780 cells): 10 µM | IC50 [1]: 3.31 µM

O=C1COc2cc(Nc3ccncc3)ccc2N1CCc1c[nH]c2ccccc12 [Compound 4]
minimal effective concentration (p53 in A2780 cells): > 10 µM | IC50 [1]: > 10 µM

Cc1cccc2c(CCN3CC4(CCCCC4)Oc4cc(Nc5ccncc5)ccc43)c[nH]c12 [Compound 59]
minimal effective concentration (p53 in A2780 cells): > 10 µM | IC50 [1]: 2.45 µM

OCc1cc(Nc2ccc3c(c2)OC2(CCOCC2)CN3CCc2c[nH]c3ccccc23)ccn1 [Compound 45]
minimal effective concentration (p53 in A2780 cells): > 10 µM | IC50 [1]: 6.31 µM

Cc1cccc2c(CCN3CC(C)Oc4cc(Nc5ccncc5)ccc43)coc12 (stereo not drawn) [Compound 53]
minimal effective concentration (p53 in A2780 cells): > 10 µM | IC50 [1]: 3.47 µM

c1ccc2c(CCN3CCOc4cc(Nc5ccncc5)ccc43)coc2c1 [Compound 49]
minimal effective concentration (p53 in A2780 cells): > 10 µM | IC50 [1]: 4.79 µM

CC1(C)CN(CCc2c[nH]c3ccccc23)c2ccc(Nc3ccnc(CO)c3)cc2O1 [Compound 78]
minimal effective concentration (p53 in A2780 cells): > 10 µM | IC50 [1]: 6.17 µM

O=C1COc2cc(Nc3ccnc4c3CCC4O)ccc2N1CCc1c[nH]c2ccccc12 (stereo not drawn) [Compound 2]
minimal effective concentration (p53 in A2780 cells): 1 µM | IC50 [1]: ~6.03 µM

CCC1(C)CN(CCc2c[nH]c3ccccc23)c2ccc(Nc3ccnc4c3CCC4O)cc2O1 (stereo not drawn) [Compound 27]
minimal effective concentration (p53 in A2780 cells): 1 µM | IC50 [1]: 5.13 µM

COc1cccc2c(CCN3CCOc4cc(Nc5ccnc6c5CCC6O)ccc43)c[nH]c12 (stereo not drawn) [Compound 71]
minimal effective concentration (p53 in A2780 cells): > 10 µM | IC50 [1]: 5.25 µM

c1ccc2c(CCN3CC4(CCCCC4)Oc4cc(Nc5ccncc5)ccc43)c[nH]c2c1 [Compound 55]
minimal effective concentration (p53 in A2780 cells): > 10 µM | IC50 [1]: 3.72 µM
